{"source": "ChEMBL document CHEMBL1126334", "about": "“Thromboxane receptor antagonist BMS-180291: A new pre-clinical lead” (Bioorg Med Chem Lett, 1992)", "key": {"[1]": {"test": "Oral bioavailability in African green monkeys; 20-25", "assay_type": "ADME, organism-based", "details": "chlorocebus aethiops, in vivo, read-out: Bioavailabiility"}, "Homo sapiens": {"organism": "Homo sapiens", "test": "Compound was tested at 1 mM for the inhibition of ADP-induced (20 uM) platelet aggregation in human platelet-rich plasma; NI=No inhibition", "assay_type": "functional, organism-based"}, "Rattus norvegicus": {"organism": "Rattus norvegicus", "test": "Compound was tested for the inhibition of U46,619-induced contractions in rat aortas", "assay_type": "functional", "details": "Aorta"}, "[2]": {"biological_target": "T1, Thromboxane-A synthase (Homo sapiens) (UniProt P24557)", "T1 sequence (whole entry)": "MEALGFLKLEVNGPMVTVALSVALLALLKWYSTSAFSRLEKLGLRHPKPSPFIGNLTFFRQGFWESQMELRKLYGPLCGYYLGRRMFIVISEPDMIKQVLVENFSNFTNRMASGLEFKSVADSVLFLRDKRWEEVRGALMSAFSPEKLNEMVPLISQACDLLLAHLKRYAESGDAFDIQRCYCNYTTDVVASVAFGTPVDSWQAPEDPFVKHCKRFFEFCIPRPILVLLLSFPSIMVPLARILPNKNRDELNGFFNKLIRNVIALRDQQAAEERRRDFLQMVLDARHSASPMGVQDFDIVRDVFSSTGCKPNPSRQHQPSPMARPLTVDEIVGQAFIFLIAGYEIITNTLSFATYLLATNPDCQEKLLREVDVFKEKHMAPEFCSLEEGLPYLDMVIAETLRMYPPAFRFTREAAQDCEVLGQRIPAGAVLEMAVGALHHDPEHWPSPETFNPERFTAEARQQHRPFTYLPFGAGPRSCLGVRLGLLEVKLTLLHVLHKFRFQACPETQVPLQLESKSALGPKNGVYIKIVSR", "test": "Compound was tested for activity against Thromboxane A2 synthase in human PRP; NI=No inhibition"}, "Monkey": {"test_system": "Monkey", "test": "Oral dose of compound required to inhibit the U46,619-induced platelet aggregation in ex vivo African green monkeys", "assay_type": "functional, Cercopithecidae"}, "Mus musculus": {"test_system": "Mus musculus", "test": "Time duration taken by the compound (0.2 mg/kg, po) to provide extended protection from U46,619 (2 mg/kg, iv) induced death", "assay_type": "functional"}, "Bos taurus": {"organism": "Bos taurus", "test": "Compound was tested at 1 nM for the inhibition of […] in bovine seminal vesicle microsomes; NI=No inhibition", "assay_type": "functional"}}, "note": "Activity calls are given as the source filed them. The calls are words filed in the database; no cut-off is given here."}
{"smiles": "CCCCCNC(=O)c1coc([C@H]2[C@@H](Cc3ccccc3CCC(=O)O)[C@@H]3CC[C@H]2O3)n1", "note": "[IFETROBAN]", "values": [{"measurement": "bioavailability", "setting": "[1]", "value": 20, "unit": "%"}, {"measurement": "Activity", "setting": "Homo sapiens", "value": "inactive"}, {"measurement": "Kb", "setting": "Rattus norvegicus", "value": 0.56, "unit": "nM"}, {"measurement": "Activity", "setting": "[2]", "value": "inactive"}, {"measurement": "Dose", "setting": "Monkey", "value": 3, "unit": "mg/kg"}, {"measurement": "T50", "setting": "Mus musculus", "value": 14, "unit": "h"}, {"measurement": "Activity", "setting": "Bos taurus", "value": "inactive"}]}
